Data on 17 compounds can be found in US20250145628A1, “PYRAZOLOPYRIMIDINES, COMPOSITIONS COMPRISING THEM AND USES THEREOF” (Novo Nordisk A/S, priority 2022, published 2025).

Structures are written as SMILES.

Test [1] has as its target T1, human CB1 receptor (Homo sapiens, UniProt P21554).
T1 construct: expressed in transfected cells; host or cells: HEK293
Nature of the test: bioSensAll GAPL-Gi2 BRET biosensor assay (antagonism of CP-55,940). The format is cell-based. The following applies: HEK293 cells transfected with hCB1 and GAPL-Gi2 biosensor, EC75 of CP-55,940 (0.1 nM), overnight incubation, read-out: CB1 wt Gi2 IC50. The method, then: (§1) Using polyethylenimine (PEI) transfection agent, HEK293 cells were transfected in suspension with the human CB1 or CB1b receptor and one of the following bioSensAll® assays: GAPL-Gi2, or β-arrestin plasma membrane (PM) translocation biosensor (+GRK2). Cells were directly seeded in 96-well plates immediately following transfection.
(§2) Cells were incubated with coelenterazine (luciferase substrate) and different test compounds prior to the measurement of BRET signals.
i) GAPL sensors are used to monitor the activation of heterotrimeric G proteins at the plasma membrane upon receptor stimulation. Specifically, these multimolecular BRET sensors detect the plasma membrane recruitment of proteins that interact with active Ga subunits in a G protein family-selective manner. G protein activation following receptor stimulation generally leads to an increase in the BRET signal.
(§3) HEK293 cells were maintained in Dulbecco's Modified Eagle Medium (DMEM) (Wisent; cat #319-030-CL: without sodium pyruvate, with 4.5 g/L glucose, without L-glutamine) supplemented with 1% penicillin-streptomycin (Wisent; cat #450-201-EL) and 2 or 10% fetal bovine serum (Wisent cat #090150).
(§4) HEK293 cells were co-transfected with hCB1 or hCB1b and one of the above-listed bioSensAll® assays. For each transfection condition: • the total amount of transfected DNA was kept constant at 1 μg per mL of cell culture to be transfected; whenever necessary, salmon sperm DNA (Invitrogen, cat #15632011) was used as ‘carrier’ DNA to supplement plasmid DNA (i.e., biosensor and receptor); • the PEI (polyethylenimine 25 kDa linear, PolyScience, cat #23966) to DNA ratio (ug:ug) was fixed at 3:1.
(§5) Transfections were carried out as follows: • DNA and PEI were first diluted separately in 150 mM NaCl. The volume of the diluent in each tube corresponds to 5% of the cell culture volume to be transfected. • Once DNA and PEI were diluted, the PEI-containing solution was added to the DNA solution and the DNA/PEI mixture immediately vortexed for 5 seconds. • The DNA/PEI mixture was incubated for at least 20 minutes at room temperature to allow for the formation of DNA/PEI complexes. • During the incubation, HEK293 cells were detached, counted and re-suspended in culture medium (composition specified above). • At the end of the incubation period, the DNA/PEI mixture was added to the cells. • Cells were finally distributed in 96-well plates (White Opaque 96-well/Microplates, Greiner, cat #655083 or CulturPlate-96, White Opaque 96-well Microplate, PerkinElmer, cat #6005688) at a density of 30 000 cells per well.
(§6) At ˜48 hours post-transfection: • Using 450-Select TS Biotek plate washer, culture medium was aspirated and replaced with 100 μl of Hank's Balanced Salt Solution buffer (HBSS) (Wisent, cat #319-067CL: without red phenol; with sodium bicarbonate, with calcium and magnesium, with HEPES) per well. This process was performed a total of two times (i.e., 2 washes). • After the washing step, the HP D300 digital dispenser (Tecan) was used to inject increasing doses (12) of test compounds (ranging from 0-600 nM) to wells. Three to five minutes later, an EC75 of CP-55,940 (0.1 nM for GAPL-Gi2 assay; 100 nM for β-arrestin PM translocation biosensor (+GRK2)) was added to columns 2-12 of each 96-well plate.
(§7) BRET signals were determined by calculating the ratio of light emitted by GFP-acceptor (515 nm) over light emitted by luciferase-donor (400 nm). All BRET ratios were standardized using the equation below with pre-established BRET values for positive and negative controls. The standardized BRET ratio is referred to as universal BRET (uBRET).
(§8) Resulting dose-response curves were fitted using the four-parameter logistic non-linear regression model in GraphPad Prism 9.

Test [2] deals with T1, human CB1 receptor. Nature of the test: bioSensAll β-arrestin plasma membrane translocation BRET biosensor (+GRK2) assay (antagonism of CP-55,940). The format is cell-based. The following applies: HEK293 cells transfected with hCB1 and β-arrestin PM translocation biosensor (+GRK2), EC75 of CP-55,940 (100 nM), overnight incubation, read-out: CB1 wt βarr2 IC50. The method, then:
as §1, §2
ii) The multimolecular β-arrestin membrane recruitment biosensors allow for real-time spatio-temporal monitoring of β-arrestin 1 and β-arrestin 2 following GPCR activation. Specifically, these β-arrestin sensors were designed to detect the recruitment of proteins to the plasma membrane (β-arrestin PM) with localization to compartment resulting in an increased BRET signal.
as §3, §4, §5, §6, §7, §8
(In BRET a luciferase serves as donor, and the signal depends on an acceptor being close.)

T1 sequence (P21554 whole entry): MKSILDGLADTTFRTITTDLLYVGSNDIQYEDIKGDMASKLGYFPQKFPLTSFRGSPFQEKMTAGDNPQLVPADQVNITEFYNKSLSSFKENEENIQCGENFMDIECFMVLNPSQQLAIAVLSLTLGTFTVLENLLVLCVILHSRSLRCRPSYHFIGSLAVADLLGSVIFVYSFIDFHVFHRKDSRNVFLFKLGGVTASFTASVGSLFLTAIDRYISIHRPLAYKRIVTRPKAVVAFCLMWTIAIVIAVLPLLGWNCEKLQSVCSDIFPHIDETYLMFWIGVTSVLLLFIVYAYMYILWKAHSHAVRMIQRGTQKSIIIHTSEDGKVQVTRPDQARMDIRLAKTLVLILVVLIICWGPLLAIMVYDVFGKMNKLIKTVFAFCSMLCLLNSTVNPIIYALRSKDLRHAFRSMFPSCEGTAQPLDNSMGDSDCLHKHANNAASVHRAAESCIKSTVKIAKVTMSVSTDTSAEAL

One may read the IC50 as the concentration needed to halve the response being measured. `CC(C)(O)COc1cc(N2CC(C)(C(N)=O)C2)n2nc(-c3ccc(C#N)nc3)c(-c3ccc(Cl)cc3)c2n1` [Compound 60, 1-[3-(4-chlorophenyl)-2-(6-cyano-3-pyridyl)-5-(2-hydroxy-2-methyl-propoxy)pyrazolo[1,5-a]pyrimidin-7-yl]-3-methyl-azetidine-3-carboxamide]: the results for the IC50 on human CB1 receptor [1] and on human CB1 receptor [2] were 1.52 nM and 5.02 nM, respectively.
The like results for `CCNC(=O)CN(C)c1cc(N2CCC(C)(C(N)=O)CC2)n2nc(-c3ccccc3Cl)c(-c3ccc(Cl)cc3)c2n1` [Compound 46, 1-[2-(2-chlorophenyl)-3-(4-chlorophenyl)-5-[[2-(ethylamino)-2-oxo-ethyl]-methyl-amino]pyrazolo[1,5-a]pyrimidin-7-yl]-4-methyl-piperidine-4-carboxamide] were, in that order, 3.79 nM and 29.9 nM.
The like results for `O[C@@H]1CCN(c2cc(-c3ccc(C(F)(F)F)nc3)n3nc(-c4ccccc4Cl)c(-c4ccc(Cl)cc4)c3n2)C1` [Compound 72(R)] were, in that order, 1.33 nM and 3.33 nM.
Taken in the same sequence, the figures for `OC[C@@H]1CCCN1c1cc(N2CCC(C(F)(F)F)CC2)n2nc(-c3ccccc3Cl)c(-c3ccc(Cl)cc3)c2n1` [Compound 2, [(2S)-1-[2-(2-chlorophenyl)-3-(4-chlorophenyl)-7-[4-(trifluoromethyl)-1-piperidyl]pyrazolo[1,5-a]pyrimidin-5-yl]pyrrolidin-2-yl]methanol] were 1.28 nM and 5.27 nM.
For the compound `O=S(=O)(N1CCN(c2cc(N3CCC[C@H]3CO)nc3c(-c4ccc(Cl)cc4)c(-c4ccccc4Cl)nn23)CC1)C(F)(F)F` [Compound 7, [(2S)-1-[2-(2-chlorophenyl)-3-(4-chlorophenyl)-7-[4-(trifluoromethylsulfonyl)piperazin-1-yl]pyrazolo[1,5-a]pyrimidin-5-yl]pyrrolidin-2-yl]methanol], the results for the IC50 at human CB1 receptor [1] and at human CB1 receptor [2] were 1.55 nM and 3.31 nM, respectively.
For `CC1(C(N)=O)CCN(c2cc(N3CC[C@@H](O)C3)nc3c(-c4ccc(Cl)cc4)c(-c4ccccc4Cl)nn23)CC1` [Compound 21, 1-[2-(2-chlorophenyl)-3-(4-chlorophenyl)-5-[(3R)-3-hydroxypyrrolidin-1-yl]pyrazolo[1,5-a]pyrimidin-7-yl]-4-methyl-piperidine-4-carboxamide], the IC50 at human CB1 receptor [1] stood at 1.28 nM; on human CB1 receptor [2], 4.6 nM.
Taken in the same sequence, the figures for `CCOC1(C(N)=O)CCN(c2cc(OCC(C)(C)O)nc3c(-c4ccc(Cl)cc4)c(-c4ccc(C#N)nc4)nn23)CC1` [Compound 55, 1-[3-(4-chlorophenyl)-2-(6-cyano-3-pyridyl)-5-(2-hydroxy-2-methyl-propoxy)pyrazolo[1,5-a]pyrimidin-7-yl]-4-ethoxy-piperidine-4-carboxamide] were 1.25 nM and 3.22 nM.
On to `O[C@H]1CCN(c2cc(-c3ccc(C(F)(F)F)nc3)n3nc(-c4ccccc4Cl)c(-c4ccc(Cl)cc4)c3n2)C1` [Compound 72(S)], for which the IC50 on human CB1 receptor [1] stood at 1.64 nM; at human CB1 receptor [2], 5.25 nM.
As for `CCNC(=O)CN(C)c1cc(N2CCC(OCC)(C(N)=O)CC2)n2nc(-c3ccccc3Cl)c(-c3ccc(Cl)cc3)c2n1` [Compound 48, 1-[2-(2-chlorophenyl)-3-(4-chlorophenyl)-5-[[2-(ethylamino)-2-oxo-ethyl]-methyl-amino]pyrazolo[1,5-a]pyrimidin-7-yl]-4-ethoxy-piperidine-4-carboxamide], the IC50 on human CB1 receptor [1] turned out to be 3.89 nM; at human CB1 receptor [2], 19.4 nM.
The like results for `CN(C[C@H](O)CO)c1cc(N2CCC(C)(C(N)=O)CC2)n2nc(-c3ccccc3Cl)c(-c3ccc(Cl)cc3)c2n1` [Compound 67, 1-[2-(2-chlorophenyl)-3-(4-chlorophenyl)-5-[[(2S)-2,3-dihydroxypropyl]-methyl-amino]pyrazolo[1,5-a]pyrimidin-7-yl]-4-methyl-piperidine-4-carboxamide] were, in that order, 1.96 nM and 14.5 nM.
Taken in the same sequence, the figures for `CN(CCC(N)=O)c1cc(N2CCC[C@@H](C(N)=O)C2)n2nc(-c3ccccc3Cl)c(-c3ccc(Cl)cc3)c2n1` [Compound 23, (3R)-1-[5-[(3-amino-3-oxo-propyl)-methyl-amino]-2-(2-chlorophenyl)-3-(4-chlorophenyl)pyrazolo[1,5-a]pyrimidin-7-yl]piperidine-3-carboxamide] were 25.5 nM and 101 nM.
The like results for `CC(C)(O)COc1cc(N2CCN(S(C)(=O)=O)CC2)n2nc(-c3ccccc3Cl)c(-c3ccc(Cl)cc3)c2n1` [Compound 16, 1-[2-(2-chlorophenyl)-3-(4-chlorophenyl)-7-(4-methylsulfonylpiperazin-1-yl)pyrazolo[1,5-a]pyrimidin-5-yl]oxy-2-methyl-propan-2-ol] were, in that order, 5.91 nM and 13.3 nM.
With `CC1(C(N)=O)CCN(c2cc(N3CC[C@@H]3CC(=O)O)nc3c(-c4ccc(Cl)cc4)c(-c4ccccc4Cl)nn23)CC1` [Compound 19, 2-[(2R)-1-[7-(4-carbamoyl-4-methyl-1-piperidyl)-2-(2-chlorophenyl)-3-(4-chlorophenyl)pyrazolo[1,5-a]pyrimidin-5-yl]azetidin-2-yl]acetic acid], the figures for the IC50 at human CB1 receptor [1] and at human CB1 receptor [2] were 1480 nM and greater than 10000 nM, respectively.
In the case of `CC1(C(N)=O)CCN(c2cc(N3CCC[C@H]3C(=O)O)nc3c(-c4ccc(Cl)cc4)c(-c4ccccc4Cl)nn23)CC1` [Compound 18, (2S)-1-[7-(4-carbamoyl-4-methyl-1-piperidyl)-2-(2-chlorophenyl)-3-(4-chlorophenyl)pyrazolo[1,5-a]pyrimidin-5-yl]pyrrolidine-2-carboxylic acid], the figures for the IC50 at human CB1 receptor [1] and on human CB1 receptor [2] were 56.2 nM and 109 nM, respectively.
Taken in the same sequence, the figures for `OC[C@@H]1CCCN1c1cc(-c2ccc(C(F)(F)F)nc2)n2nc(-c3ccccc3Cl)c(-c3ccc(Cl)cc3)c2n1` [Compound 8, [(2S)-1-[2-(2-chlorophenyl)-3-(4-chlorophenyl)-7-[6-(trifluoromethyl)-3-pyridyl]pyrazolo[1,5-a]pyrimidin-5-yl]pyrrolidin-2-yl]methanol] were 1.8 nM and 4.41 nM.
Taken in the same sequence, the figures for `COc1ccc(-c2cc(N3CCC[C@H]3CO)nc3c(-c4ccc(Cl)cc4)c(-c4ccccc4Cl)nn23)cc1` [Compound 5, [(2S)-1-[2-(2-chlorophenyl)-3-(4-chlorophenyl)-7-(4-methoxyphenyl)pyrazolo-[1,5-a]pyrimidin-5-yl]pyrrolidin-2-yl]methanol] were 3.69 nM and 8.6 nM.
The like results for `CN(CCOCCO)c1cc(N2CCC(C)(C(N)=O)CC2)n2nc(-c3ccccc3Cl)c(-c3ccc(Cl)cc3)c2n1` [Compound 66, 1-[2-(2-chlorophenyl)-3-(4-chlorophenyl)-5-[2-(2-hydroxyethoxy)ethyl-methyl-amino]pyrazolo[1,5-a]pyrimidin-7-yl]-4-methyl-piperidine-4-carboxamide] were, in that order, 7.3 nM and 47.3 nM.
